The source of these data is patent US20120258938A1, “Enzymatic Production or Chemical Synthesis and Uses for 5,7-Dienes and UVB Conversion Products Thereof” (priority 2008, published 2012).

Structures are written as SMILES.

One may read the kcat as the maximal rate divided by the concentration of active sites.

Test [1] deals with neonatal epidermal melanocytes. The test can be described thus: Proliferation of neonatal epidermal melanocytes. In kind it is cell-based. The note with it: 48 hours.
Another test deals with MG-63. Nature of the test: Flow cytometry cell cycle and subG1, MG-63. In kind it is cell-based, human. As to conditions: MG-63, 24 h. On the procedure: MD-MBA-231, MG-63, PC-3, and WM164 cells were seeded into Petri dishes and then incubated for 24 h with 20-hydroxycholecalciferol in DMEM medium containing 5% FBS. Then cells were fixed, DNA stained and samples read with flow cytometer as described (7). Data was analyzed with Cell Quest (BD Biosciences). Cell cycle phases were assessed in viable cell populations and subG1 contents were calculated within whole cell population.
(In general: A flow cytometer gives signals particle by particle.)

The next test concerns the target T1, CYP27A1 (Homo sapiens, UniProt Q02318).
T1 sequence (Q02318 34-531): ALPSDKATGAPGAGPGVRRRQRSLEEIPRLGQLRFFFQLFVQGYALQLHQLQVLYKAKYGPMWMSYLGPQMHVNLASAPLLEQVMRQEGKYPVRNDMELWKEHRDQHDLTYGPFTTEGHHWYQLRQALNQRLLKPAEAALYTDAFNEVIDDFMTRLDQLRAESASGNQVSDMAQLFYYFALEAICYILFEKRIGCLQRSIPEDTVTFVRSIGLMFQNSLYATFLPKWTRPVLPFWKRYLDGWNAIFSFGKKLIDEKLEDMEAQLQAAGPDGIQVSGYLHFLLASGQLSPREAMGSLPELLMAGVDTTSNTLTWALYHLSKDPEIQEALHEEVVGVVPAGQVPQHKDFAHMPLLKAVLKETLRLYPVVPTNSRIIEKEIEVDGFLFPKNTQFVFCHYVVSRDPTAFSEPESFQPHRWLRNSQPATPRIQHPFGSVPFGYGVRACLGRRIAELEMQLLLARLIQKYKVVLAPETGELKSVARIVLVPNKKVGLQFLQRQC
The test can be described thus: Metabolism by CYP27A1 (cyclodextrin or phospholipid vesicles). The protocol: To test enzymatic metabolism of 20S(OH)D3 and 20R(OH)D3, the substrates were incorporated into phospholipid vesicles with the ratio of substrate to phospholipid being 0.025 mol/mol phospholipid. Vesicles were incubated with 2 μM bovine CYP11A1 or 0.06 μM human CYP27B1 for up to 10 min. To test enzymatic metabolism of 20(OH)D3 in CYP24, the substrate was incorporated into phospholipids vesicles with 0.15-0.5 μM CYP24. To test enzymatic metabolism of 20(OH)D3 in CYP27A1, purified CYP27A1 was preincubated with the vesicles for 6 min at 37° C. Adrenodoxin was added last to initiate the reaction. For kinetic experiments, the incubations were typically 0.5 mL and were carried out over the initial linear period of the reaction (10 min for vitamin D3 and cholesterol and 30 min for 20(OH)D3).
Kinetic characterization of the metabolism of 20(OH)D3 by CYP27A1 was carried out with substrate dissolved in either cyclodextrin or phospholipid vesicle. Vitamin D3 and 20(OH)D3 were incubated with 0.4 μM CYP27A1 and 1 μM CYP27A1, respectively, for 10 and 30 min. The products were analyzed by reverse phase HPLC. The hyperbolic curves were fitted using the equation v/[E]=(kcat—[S])/(Km+[S]) where v is reaction velocity, [E] is the CYP27A1 concentration, and [S] the substrate concentration.

A further test deals with VDRE. Nature of the test: Electrophoretic mobility shift assay for VDR activation (VDRE probe). Type of test: cell-based, human. The note with it: HaCaT nuclear extracts, 10 nM, 24 h. Background: Mobility shift assays separate free from complexed probe on a gel.
Test [2] deals with bleomycin-induced scleroderma in C57BL/6 mice. The test can be described thus: Bleomycin-induced scleroderma in mice. Type of test: in vivo, mouse. The protocol: […] The skin was injected S.C. with 20(OH)D3 or vehicle daily within the same 1.5 cm^2 area. On day 22, all mice were euthanized and skin in the shaved area of the back was treated with a depilatory agent after which a biopsy of 1 cm circumference encompassing the S.C. injection site was taken to a depth to include the full thickness of the dermis. The skin samples from 5 randomly selected mice from each group were weighed and snap frozen in liquid nitrogen. Later, the skin samples were thawed and treated overnight with pepsin (0.1 mg/ml) of 0.5 M acetic acid at 4° C. with constant rocking to remove terminal non-helical telopeptides to release the collagen into solution. Total solubilized collagen was quantitative using a Sircol Collagen Assay kit using type I bovine collagen to obtain a standard curve. The collagen content of the skin samples was expressed as μg of collagen per mg tissue weight. Results for the groups were expressed as mean±SEM and analyzed by one way ANOVA with p values<0.05 considered to be statistically significant.

The subject of another test is TNFα. The test can be described thus: LPS-induced TNFα production by PBMC. In kind it is cell-based. As to conditions: normal human PBMC, LPS (10 pg/ml), 10^−8M.
In test [3] the test system is AbC1 hamster melanoma cells. Nature of the test: Soft agar colony formation, AbC1 melanoma. Type of test: cell-based. The protocol: Growth and survival of prostate cancer cells (PC3) and melanoma cells SKMEL 188 and AbC1 was determined by following their ability to form colonies in soft agar. Cells growing in monolayer culture were trypsinized and resuspended (1,000 cells/well) in 0.25 ml medium containing 0.4% agarose and 5% charcoal stripped serum (HyClone).
Cell suspensions were added to 0.8% agar layer in 24 well plates. Compounds were added from ethanol stocks (100 μM) to final concentrations of 0.1 nM or 10 nM, in 100 μL media. Each condition was tested in quadruplicate. An ethanol solvent control (amount of ethanol equivalent to test) as well as a media-only control was included in the assay. […] […] Colonies were then counted under the microscope and number of units was calculated as number of colonies formed divided by the number of cells seeded×100.

With `C=C1/C(=C\C=C2/CCC[C@]3(C)[C@@H]([C@H](C)CCCC(C)(C)O)CC[C@@H]23)C[C@@H](O)C[C@@H]1O` [1α,25-dihydroxycholecalciferol, (5Z,7E)-9,10-secocholesta-5,7,10(19)-triene-1α,3β,25-triol, reference compound], the proliferation entry in test [1] is given as “Dose dependent inhibition of the proliferation”.

With `C=C1CC[C@H](O)C/C1=C/C=C1\CCC[C@@]2(C)[C@H]1CC[C@@H]2[C@@](C)(O)CCCC(C)C` [20(OH)D3, (5Z,7E)-9,10-secocholesta-5,7,10(19)-triene-3β,20-diol], in the test with MG-63, the “G0/G1 of viable cells” value was determined as 52%, the “G2/M of viable cells” value was found to be 15, the “S of viable cells” value came out at 33% and the “Viable Cells” value amounted to 18. Moreover, the subG1 in the test on MG-63 (whole cell population) amounted to 82. In addition, the kcat at CYP27A1 (cyclodextrin) came out at 0.013 ± 0.00033 s⁻¹. Also, on CYP27A1 (phospholipid vesicles), the kcat came out at 0.0126 ± 0.001 s⁻¹. In addition, the “binding of protein complexes to VDRE probe” value in the test on VDRE is recorded as “stimulated binding activity of protein complexes to VDRE probe”. The “bleomycin-induced increase of total skin collagen” value in test [2] (3 μg/kg daily dose, 21 days) was “prevented”. Moreover, in test [2] (bleomycin + 20(OH)D3, 21 days), the “body weight less than the vehicle control group” value is listed as 13.6%. Besides, in the test with TNFα, the TNFα production worked out at 2609 ± 1961 pg/mL.

As to `C=C1CC[C@H](O)C/C1=C/C=C1\CCC[C@]2(C)[C@@H](C(C)(O)CC(O)CC(C)C)CC[C@@H]12` (stereo partly drawn) [20,23-dihydroxycholecalciferol, (5Z,7E)-9,10-secocholesta-5,7,10(19)-triene-3β,20,23-triol], the “decrease of colony formation in soft agar” value is 30% in test [3] (AbC1, 0.1 nM) and “approximately 50%” in test [3] (AbC1, 10 nM).
